The values below come from PMC8811960, “A Novel 2-Carbon-Linked Dimeric Artemisinin With Potent Antileukemic Activity and Favorable Pharmacology” (Frontiers in Oncology, 2022).

Some results are limits rather than exact numbers.

One series deals with HEL. The series is described as follows: alamarBlue growth inhibition, HEL. It is filed as cell-based. Conditions: Homo sapiens, 48h, mean of 2 independent assays ± SD. As for the experimental part: (§1) Cytotoxicity was assessed using alamarBlue assays (Life Technologies, Grand Island, NY) following manufacturer’s guidelines. Cell death was verified by Annexin V/7-aminoactinomycin D (7AAD) staining (BioLegend, San Diego, CA) per manufacturer’s guidelines.

For series [1] the following is noted: as previously reported; cited from earlier work.
Another series deals with K562. Description: alamarBlue growth inhibition, K562. It is filed as cell-based. Particulars: Homo sapiens, K562, 48h, mean of 2 independent assays ± SD. As for the experimental part: as §1
The next series relates to U937. The series is described as follows: alamarBlue growth inhibition, U937. Particulars: Homo sapiens, U-937, U937, 48h, mean of 2 independent assays ± SD. It is filed as cell-based. On the procedure: as §1
The subject of the next series is MOLM14. Description: alamarBlue growth inhibition, MOLM14. It is filed as cell-based. Particulars: Homo sapiens, MOLM-14, 48 h. As for the experimental part:
as §1
In this experiment, provided to show the entire concentration:response range, MOLM14 AML cells were cultured with a range of concentrations of artesunate (AS), ART838, ART631, and ART576 for 48h. Graph indicates growth inhibition relative to vehicle (DMSO)-treated controls by alamarBlue absorbance assays. Data points and error bars represent mean and SD of 3 independent experiments done in triplicate.

Another series has as its system TF1. The series is described as follows: alamarBlue growth inhibition, TF1. It is filed as cell-based. Conditions: Homo sapiens, TF-1, TF1, 48h, mean of 2 independent assays ± SD. On the procedure:
as §1

A further series concerns 23 leukemia cell lines. Particulars: against 23 leukemia cell lines; cited from earlier work.
Another series relates to AML45 PDX. More on the design: method as in PMID 33560385. Particulars: monotherapy; cited from earlier work.
The conditions of series [2]: x5; cited from earlier work.
The next series relates to DDIT3. Description: qRT-PCR for DDIT3 mRNA. It is filed as cell-based, human. Particulars: MOLM14, 18h, ART631 200 nM, ART838 200 nM, AS 10 uM, similar results in MV4;11 and ML2. As for the experimental part:
Cells were pre-treated with […] ROS detection reagent 5-(and 6-)-chloromethyl-2’,7’-dichlorodihydrofluorescein diacetate (CM-H2DCFDA, Life Technologies) for 30 min, followed by the iron chelator deferoxamine mesylate (DFO; 11 mM) for 60 min. Cells were then treated with ART631 (200 nM) or DMSO control for 18h, with subsequent analysis by flow cytometry. Western blotting and quantitative reverse transcription PCR (qRT-PCR) to assess for molecular markers of ROS-mediated apoptosis were performed as previously described ([20]).
Figure 4 ART631 elevated ROS and CHOP levels and reduced MCL1 expression in MOLM14 AML cells. (A) MOLM14 AML cells were pre-treated with ROS detection reagent CM-H2DCFDA ([…]) for 30 min, pre-treated with deferoxamine mesylate (DFO; 11 mM) for 60 min, and then treated with ART631 (200 nM) or DMSO control for 18h. They were then analyzed by flow cytometry. Graph represents %CM-H2DCFDA fluorescence compared to vehicle (DMSO) control treated cells. Error bars represent SD from 3 independent experiments. (B) MOLM14 AML cells were treated for 18h with vehicle, AS (10 uM), ART838 (200 nM), ART631 (200 nM), cytarabine (AraC; 150 nM), or SOR (5 uM). Protein was isolated and western blotted for MCL1, BCL2, CHOP, and β-actin. (C) MOLM14 cells were treated as in (B) for 18h, total RNA isolated, cDNA synthesized, and SYBR Green qRT-PCR performed in triplicates. Ct values were normalized to housekeeping gene GAPDH and fold change shown relative to vehicle (DMSO) control. Error bars represent SD from 3 independent experiments done in triplicate.

For another series, the system named is HL60. The series is described as follows: alamarBlue growth inhibition, HL60. It is filed as cell-based. Conditions: Homo sapiens, HL-60, HL60, 48h, mean of 2 independent assays ± SD. On the procedure:
as §1

For another series, the system named is 10 human AML cell lines. Description: alamarBlue growth inhibition, panel of 10 human AML cell lines. It is filed as cell-based. On the procedure:
as §1
Cell lines with adverse risk cytogenetic and molecular features, e.g. MLL rearrangements (ML2, MOLM14, MV4;11, THP1), FLT3-ITD (MOLM14, MV4;11), TP53 mutations (KG1a, ML2, THP1, U937), and NRAS/KRAS mutations (ML2, THP1), were among those exquisitely sensitive to ART631, with IC50s < 50 nM. The K562 cell line was the only exception, as it was resistant to all 3 of these ARTs. Based on this in vitro activity data combined with the drug stability data described below, ART631 was prioritized over ART576 for further in vitro and in vivo antileukemic efficacy experiments here ( Table 2 ).

The subject of the next series is THP1. Description: alamarBlue growth inhibition, THP1. It is filed as cell-based. Particulars: Homo sapiens, THP-1, THP1, 48h, mean of 2 independent assays ± SD. As for the experimental part:
as §1

A further series deals with KG1a. The series is described as follows: alamarBlue growth inhibition, KG1a. It is filed as cell-based. Conditions: Homo sapiens, KG-1a, 48h, mean of 2 independent assays ± SD. On the procedure:
as §1

For the next series, the system named is MV4;11. The series is described as follows: alamarBlue growth inhibition, MV4;11. It is filed as cell-based. Conditions: Homo sapiens, MV4;11, 48h, mean of 2 independent assays ± SD. On the procedure:
as §1

Another series relates to ML2. Description: alamarBlue growth inhibition, ML2. It is filed as cell-based. Conditions: Homo sapiens, ML-2, ML2, 48h, mean of 2 independent assays ± SD. As for the experimental part:
as §1

Turning to `C[C@@H]1CCC2[C@@H](C)[C@@H](CC(COP(=O)(Oc3ccccc3)Oc3ccccc3)C[C@H]3O[C@@H]4O[C@@]5(C)CCC6[C@H](C)CCC([C@H]3C)[C@]64OO5)O[C@@H]3O[C@@]4(C)CCC1[C@@]23OO4` (some centres unmarked) [ART838, reference compound], the half-inhibitory concentration (IC50) with HEL was 72 ± 6 nM; in the series with K562, > 1000 nM; with U937, 22 ± 3 nM; in the series on MOLM14, 28 ± 3 nM; in the series on TF1, 36 ± 3 nM; in the series on HL60, 45 ± 3 nM. For the same compound, the half-maximal inhibitory concentration (IC50) in the series on 10 human AML cell lines (Homo sapiens, read-out: IC50 range) was 22 to 112 nM; in the series with THP1, 45 ± 3 nM; in the series with KG1a, 112 ± 7 nM; with MV4;11, 28 ± 1 nM; with ML2, 40 ± 5 nM. In addition, the “degradation (stability)” value in series [1] was ≤ 20%. Besides, in the series on 23 leukemia cell lines, the “fold more potent than artesunate (AS)” value is on record as 88 fold. Besides, in the series on AML45 PDX, the survival versus vehicle entry is “did not reach statistical significance”. Further, the “multiple day MTD regimen” value in series [2] was 50 mg/kg/day. In addition, in the series with DDIT3, the “DDIT3 mRNA” value is reported as “increased”. The “number of human AML cell lines whose growth was inhibited” value in the series with 10 human AML cell lines (of 10 human AML cell lines tested) amounted to 9.
